Measured values as given in the CheMixHub ionic liquid set.

Assay: xn = mol fraction of the nth substance listed

CC(=O)[O-].CCCC[N+](CCCC)(CCCC)CCCC + CCCCCCCCCCCCOS(=O)(=O)[O-].[Na+] + O
viscosity [mPa·s], 100 kPa
Settings | x2 = 1.81e-06, x1 = 0.0001802 | x2 = 3.61e-06, x1 = 0.0001802 | x2 = 5.42e-06, x1 = 0.0001802 | x2 = 7.23e-06, x1 = 0.0001802 | x2 = 9.04e-06, x1 = 0.0001802 | x2 = 1.084e-05, x1 = 0.0001802 | x2 = 1.265e-05, x1 = 0.0001802 | x2 = 1.446e-05, x1 = 0.0001802 | x2 = 1.626e-05, x1 = 0.0001802 | x2 = 1.807e-05, x1 = 0.0001802
293.15 K | 0.997 | 1 | 1.004 | 1.004 | 1.006 | 1.007 | 1.007 | 1.008 | 1.008 | 1.008
298.15 K | 0.89 | 0.893 | 0.894 | 0.894 | 0.898 | 0.901 | 0.902 | 0.903 | 0.904 | 0.904
303.15 K | 0.756 | 0.758 | 0.76 | 0.763 | 0.764 | 0.765 | 0.766 | 0.768 | 0.768 | 0.769
308.15 K | 0.679 | 0.68 | 0.681 | 0.683 | 0.684 | 0.684 | 0.686 | 0.687 | 0.688 | 0.688
313.15 K | 0.605 | 0.606 | 0.606 | 0.608 | 0.609 | 0.609 | 0.611 | 0.612 | 0.612 | 0.613
318.15 K | 0.569 | 0.572 | 0.572 | 0.574 | 0.575 | 0.575 | 0.577 | 0.578 | 0.578 | 0.579

CC[n+]1ccn(C)c1.O=C([O-])C(F)(F)F + OCC(O)CO
100 kPa
Settings | electrical conductivity, 298.15 K [S/m] | electrical conductivity, 313.15 K [S/m] | viscosity, 293.15 K [mPa·s] | viscosity, 298.15 K [mPa·s] | viscosity, 303.15 K [mPa·s] | viscosity, 313.15 K [mPa·s]
x1 = 0.002 | 0.000383 | 0.0012 | 1382 | 893 | 592 | 280.8
x1 = 0.004 | 0.00069 | 0.00217 | – | – | – | –
x1 = 0.013 | 0.00211 | 0.0066 | 1264 | 818 | 544 | 259.8
x2 = 0.202 | 0.81 | 1.37 | 47 | 38.2 | 31.3 | 22
x2 = 0.3 | 0.71 | 1.23 | 58 | 46.3 | 37.5 | 25.7
x2 = 0.399 | 0.57 | 1.02 | 65.5 | 51.5 | 41.1 | 27.5
x2 = 0.5 | 0.436 | 0.84 | 86 | 66.1 | 51.7 | 33.4
x2 = 0.6 | 0.305 | 0.63 | 115.9 | 86.6 | 66.1 | 40.8
x2 = 0.7 | 0.184 | 0.411 | 177.8 | 128.2 | 94.6 | 55
x2 = 0.8 | 0.08 | 0.199 | 316 | 218.7 | 155.2 | 84.1
x2 = 0.9 | 0.023 | 0.065 | 639 | 427 | 291.2 | 146.8
x2 = 0.956 | 0.0076 | 0.0231 | 983 | 643 | 432 | 210
x2 = 0.979 | 0.00328 | 0.0103 | 1188 | 772 | 514 | 246.5

COCCOCCO + CCCC[n+]1ccn(C)c1.F[P-](F)(F)(F)(F)F
100 kPa
Settings | viscosity [mPa·s]
283.15 K, x2 = 0.05331 | 7.5
283.15 K, x2 = 0.09804 | 9.72
283.15 K, x2 = 0.19 | 15.75
283.15 K, x2 = 0.2921 | 25.91
283.15 K, x2 = 0.384 | 39.17
283.15 K, x2 = 0.4556 | 57.5
283.15 K, x2 = 0.5782 | 97.4
283.15 K, x2 = 0.6754 | 141.2
283.15 K, x2 = 0.7826 | 218.3
283.15 K, x2 = 0.8947 | 394
283.15 K, x2 = 0.9428 | 522
293.15 K, x2 = 0.04991 | 5.319
293.15 K, x2 = 0.09685 | 6.745
293.15 K, x2 = 0.1962 | 10.81
293.15 K, x2 = 0.291 | 16.42
293.15 K, x2 = 0.4 | 25.65
293.15 K, x2 = 0.5144 | 42.34
293.15 K, x2 = 0.5864 | 52.18
293.15 K, x2 = 0.673 | 67.5
293.15 K, x2 = 0.7866 | 103.1
293.15 K, x2 = 0.8943 | 187.6
293.15 K, x2 = 0.945 | 239.3
303.15 K, x2 = 0.05183 | 4.124
303.15 K, x2 = 0.09655 | 5.063
303.15 K, x2 = 0.1884 | 7.095
303.15 K, x2 = 0.2922 | 11.15
303.15 K, x2 = 0.3935 | 16.31
303.15 K, x2 = 0.5055 | 26.04
303.15 K, x2 = 0.5816 | 33.29
303.15 K, x2 = 0.6785 | 45.05
303.15 K, x2 = 0.7725 | 63.3
303.15 K, x2 = 0.9022 | 113.3
303.15 K, x2 = 0.9392 | 142.8
313.15 K, x2 = 0.04989 | 3.16
313.15 K, x2 = 0.09747 | 3.842
313.15 K, x2 = 0.1914 | 5.61
313.15 K, x2 = 0.2888 | 8.03
313.15 K, x2 = 0.3854 | 11.32
313.15 K, x2 = 0.4724 | 15.18
313.15 K, x2 = 0.5945 | 23.13
313.15 K, x2 = 0.6785 | 31.11
313.15 K, x2 = 0.7835 | 46.19
313.15 K, x2 = 0.8966 | 73.1
313.15 K, x2 = 0.9583 | 96.7

CCCCCCCCCCCC[N+]1(C)CCCC1.O=C([O-])c1ccccc1O + O
100 kPa
Settings | electrical conductivity [S/m]
298.15 K, x1 = 3.592e-05 | 0.00892
298.15 K, x1 = 3.961e-05 | 0.00933
298.15 K, x1 = 4.883e-05 | 0.0111
308.15 K, x1 = 4.883e-05 | 0.0151
318.15 K, x1 = 3.592e-05 | 0.0144
318.15 K, x1 = 5.39e-05 | 0.02
318.15 K, x1 = 5.759e-05 | 0.0215
328.15 K, x1 = 5.39e-05 | 0.0254
328.15 K, x1 = 5.759e-05 | 0.0262

CCCCCCCCCCCCCC[P+](CCCCCC)(CCCCCC)CCCCCC.c1nnn[n-]1 + CCCCCC[n+]1ccn(C)c1.O=S(=O)([N-]S(=O)(=O)C(F)(F)F)C(F)(F)F
100 kPa
Settings | viscosity [mPa·s]
283.15 K, x2 = 0.102 | 1711
283.15 K, x2 = 0.299 | 1361
283.15 K, x2 = 0.6 | 662
283.15 K, x2 = 0.8 | 342
288.15 K, x2 = 0.102 | 1155
288.15 K, x2 = 0.201 | 1055
288.15 K, x2 = 0.8 | 247
288.15 K, x2 = 0.9 | 158
298.15 K, x2 = 0.102 | 567
298.15 K, x2 = 0.6 | 245
303.15 K, x2 = 0.201 | 382
303.15 K, x2 = 0.701 | 145
308.15 K, x2 = 0.201 | 286
308.15 K, x2 = 0.299 | 253
308.15 K, x2 = 0.8 | 86
308.15 K, x2 = 0.9 | 59
313.15 K, x2 = 0.6 | 112
318.15 K, x2 = 0.349 | 141

c1ccncc1 + CCCCCCCC[n+]1ccc2ccccc2c1.O=S(=O)([N-]S(=O)(=O)C(F)(F)F)C(F)(F)F
Settings | viscosity [mPa·s]
338.15 K, 101 kPa, x1 = 1 | 0.54

CCCCCC[n+]1ccn(C)c1.F[B-](F)(F)F + CCCCCO
101.33 kPa, x2 = 0.865
Settings | viscosity [mPa·s]
315 K | 5.31
315.35 K | 4.93
315.39 K | 4.9
315.5 K | 4.85
315.63 K | 4.78
315.79 K | 4.73
315.84 K | 4.71
315.86 K | 4.71
318.02 K | 4.19

O=C1OCCO1 + CC[n+]1ccn(C)c1.O=S(=O)([N-]S(=O)(=O)C(F)(F)F)C(F)(F)F
100 kPa
Settings | electrical conductivity [S/m] | viscosity [mPa·s]
293.15 K, x1 = 0.8163 | – | 5
293.15 K, x1 = 0.98 | 0.62 | –
303.15 K, x1 = 0.5263 | – | 11.5
303.15 K, x1 = 0.7476 | – | 6.1
313.15 K, x1 = 0.95 | 1.42 | –
333.15 K, x1 = 0.8163 | – | 2.4
333.15 K, x1 = 0.95 | 1.84 | –
343.15 K, x1 = 0.5263 | – | 4.6
343.15 K, x1 = 1 | – | 1.16
353.15 K, x1 = 0.66 | 4.47 | –
353.15 K, x1 = 0.82 | 4.06 | –
353.15 K, x1 = 0.9467 | – | 1.33
353.15 K, x1 = 0.98 | 1.37 | –
363.15 K, x1 = 0.8163 | – | 1.56
373.15 K, x1 = 0.5263 | – | 3
373.15 K, x1 = 1 | – | 0.85
383.15 K, x1 = 0.7476 | – | 1.63
393.15 K, x1 = 0.7476 | – | 1.49
393.15 K, x1 = 0.9467 | – | 0.91
